# Data from patent US12202832B2, “Heterocyclic compounds having a calcium-sensing receptor antagonistic activity” (TAKEDA PHARMACEUTICAL COMPANY LIMITED, priority 2017, dated 2025).
# Target: T1, human CaSR (Homo sapiens, UniProt P41180)
# T1 construct: expressed in transfected cells; host or cells: CHO cells
# T1 sequence (P41180 20-1078): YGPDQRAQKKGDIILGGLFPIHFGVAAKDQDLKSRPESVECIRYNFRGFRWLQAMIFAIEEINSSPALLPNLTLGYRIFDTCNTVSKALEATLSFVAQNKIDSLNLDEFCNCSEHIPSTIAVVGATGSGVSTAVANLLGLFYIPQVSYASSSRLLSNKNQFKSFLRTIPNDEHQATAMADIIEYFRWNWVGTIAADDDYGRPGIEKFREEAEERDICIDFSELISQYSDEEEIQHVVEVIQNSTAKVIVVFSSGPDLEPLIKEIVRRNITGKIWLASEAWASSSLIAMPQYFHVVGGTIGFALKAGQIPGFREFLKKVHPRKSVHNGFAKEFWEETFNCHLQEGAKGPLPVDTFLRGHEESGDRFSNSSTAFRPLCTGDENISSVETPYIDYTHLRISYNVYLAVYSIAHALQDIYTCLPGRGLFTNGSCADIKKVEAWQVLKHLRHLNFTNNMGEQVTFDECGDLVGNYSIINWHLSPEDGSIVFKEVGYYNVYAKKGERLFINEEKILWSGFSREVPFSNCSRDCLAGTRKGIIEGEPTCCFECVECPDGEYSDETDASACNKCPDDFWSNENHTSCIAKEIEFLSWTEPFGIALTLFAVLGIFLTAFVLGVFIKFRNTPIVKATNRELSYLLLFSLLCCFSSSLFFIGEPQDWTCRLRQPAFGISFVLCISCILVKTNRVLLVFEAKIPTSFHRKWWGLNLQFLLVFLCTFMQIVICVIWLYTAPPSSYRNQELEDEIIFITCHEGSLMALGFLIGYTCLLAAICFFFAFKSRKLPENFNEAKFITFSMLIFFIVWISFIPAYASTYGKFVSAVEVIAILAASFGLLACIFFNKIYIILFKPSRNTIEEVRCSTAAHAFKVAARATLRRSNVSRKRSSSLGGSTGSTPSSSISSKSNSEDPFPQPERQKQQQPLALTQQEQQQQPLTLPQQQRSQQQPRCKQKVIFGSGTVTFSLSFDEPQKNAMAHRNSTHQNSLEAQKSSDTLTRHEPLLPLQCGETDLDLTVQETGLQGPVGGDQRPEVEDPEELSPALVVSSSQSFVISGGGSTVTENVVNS
# Assay: Human CaSR antagonist activity (NFAT-Luciferase reporter in CHO cells)
# Assay type: cell-based
# Details: CHO, CaCl2 final 1.3 mM, 100% = reference antagonist at 10 μM, read-out: Inhibition rate (%) at 3.3 μM
# Procedure: CaSR antagonist activity measurement was performed using Bright-Glo Luciferase assay system (Promega Corporation). CHO cells in which human CaSR and NFAT-Luciferase reporter gene were forcibly expressed were suspended in MEM alpha (Wako Pure Chemical Industries, Ltd.) containing 10% dialyzed serum (HyClone). The cells in suspension was seeded in 384-well white plate (Corning) at 10,000/20 μL/well, and cultured in an incubator of 37° C., 5% CO2 for one day. A diluent of Test compound was prepared with assay buffer (MEM alpha containing 10 mM HEPES (Life Technologies) and 10% dialysis serum). The diluent was added to the plate at 5 μL/well and allowed to stand at 37° C. for 10 minutes. Further, a diluent of 7.8 mM CaCl2 prepared with assay buffer (final concentration 1.3 mM) was added at 5 μl/well and allowed to stand in an incubator of 37° C., 5% CO2 for 2 hours. Bright-Glo reagents (Promega Corporation) were added at 10 μL/well, and the obtained mixture was stirred for 5 minutes, and then luminescence intensity was measured using Multi-label reader Envision (PerkinElmer, Inc.). The activity (%) of the test compound was calculated with the definitions in which the luminescence intensity when DMSO is added in place of the test compound is defined as 0% inhibition; and the luminescence intensity when (5R)—N-(1-ethyl-1-(4-ethylphenyl)propyl)-2,7,7-trimethyl-5-phenyl-4,5,6,7-tetrahydropyrazolo[1,5-a] Pyrimidine-3-carboxamide at final concentration of 10 μM is added is defined as 100% inhibition.
row,inhibition at 3.3 µM,Structure (SMILES)
1,106%,"CCc1ccc(C(CC)(NC(=O)c2cnn3c2N[C@@H](c2ccccc2)CC3(C)C)C(=O)N[C@H](C)C(N)=O)cc1 (stereo partly drawn) [Example 22, (5R)-N-(1-(((2R)-1-Amino-1-oxopropan-2-yl)amino)-2-(4-ethylphenyl)-1-oxobutan-2-yl)-7,7-dimethyl-5-phenyl-4,5,6,7-tetrahydropyrazolo[1,5-a]pyrimidine-3-carboxamide]"
2,103%,"CCc1ccc([C@@](CC)(NC(=O)c2cnn3c2N[C@@H](c2ccccc2)CC3(C)C)C(=O)N[C@H](C(N)=O)[C@@H](C)O)cc1 [Example 21, (5R)-N-((2R)-1-(((2S,3R)-1-Amino-3-hydroxy-1-oxobutan-2-yl)amino)-2-(4-ethylphenyl)-1-oxobutan-2-yl)-7,7-dimethyl-5-phenyl-4,5,6,7-tetrahydropyrazolo[1,5-a]pyrimidine-3-carboxamide]"
3,98%,"CCc1ccc(C(C)(NC(=O)c2cnn3c2N[C@@H](c2ccccc2)CC3(C)C)C(=O)N[C@@H](CC(C)C)C(N)=O)cc1 (stereo partly drawn) [Example 9, (5R)-N-(1-(((2S)-1-Amino-4-methyl-1-oxopentan-2-yl)amino)-2-(4-ethylphenyl)-1-oxopropan-2-yl)-7,7-dimethyl-5-phenyl-4,5,6,7-tetrahydropyrazolo[1,5-a]pyrimidine-3-carboxamide]"
4,102%,"CCc1ccc(C(CC)(NC(=O)c2cnn3c2N[C@@H](c2ccccc2)CC3(C)C)C(=O)N[C@@H](CO)C(N)=O)cc1 (stereo partly drawn) [Example 23, (5R)-N-(1-(((2S)-1-Amino-3-hydroxy-1-oxopropan-2-yl)amino)-2-(4-ethylphenyl)-1-oxobutan-2-yl)-7,7-dimethyl-5-phenyl-4,5,6,7-tetrahydropyrazolo[1,5-a]pyrimidine-3-carboxamide]"
5,102%,"CCc1ccc(C(CC)(NC(=O)c2cnn3c2N[C@@H](c2ccccc2)CC3(C)C)C(=O)N[C@@H](C)C(N)=O)cc1 (stereo partly drawn) [Example 2, (5R)-N-(1-(((2S)-1-Amino-1-oxopropan-2-yl)amino)-2-(4-ethylphenyl)-1-oxobutan-2-yl)-7,7-dimethyl-5-phenyl-4,5,6,7-tetrahydropyrazolo[1,5-a]pyrimidine-3-carboxamide]"
6,98%,"CCc1ccc(C(CC)(NC(=O)c2cnn3c2N[C@@H](c2ccccc2)CC3(C)C)C(=O)N[C@@H](CC(C)C)C(N)=O)cc1 (stereo partly drawn) [Example 14, (5R)-N-(1-(((2S)-1-Amino-4-methyl-1-oxopentan-2-yl)amino)-2-(4-ethylphenyl)-1-oxobutan-2-yl)-7,7-dimethyl-5-phenyl-4,5,6,7-tetrahydropyrazolo[1,5-a]pyrimidine-3-carboxamide]"

# The remaining lines, values behind:
row,Structure (SMILES),inhibition at 3.3 µM
1,"CCc1ccc(C(CC)(NC(=O)c2cnn3c2N[C@@H](c2ccccc2)CC3(C)C)C(N)=O)cc1 (stereo partly drawn) [Example 26, (5R)-N-(1-Amino-2-(4-ethylphenyl)-1-oxobutan-2-yl)-7,7-dimethyl-5-phenyl-4,5,6,7-tetrahydropyrazolo[1,5-a]pyrimidine-3-carboxamide]",106%
2,"CCc1ccc(C(CC)(NC(=O)c2cnn3c2N[C@@H](c2ccccc2)CC3(C)C)C(=O)NC)cc1 (stereo partly drawn) [Example 29, (5R)-N-(2-(4-Ethylphenyl)-1-(methylamino)-1-oxobutan-2-yl)-7,7-dimethyl-5-phenyl-4,5,6,7-tetrahydropyrazolo[1,5-a]pyrimidine-3-carboxamide]",103%
3,CCc1ccc(C(CC)(NC(=O)c2cnn3c2N[C@@H](c2ccccc2)CC3(C)C)C(=O)N[C@@H](Cc2ccccc2)C(N)=O)cc1 (stereo partly drawn) [Example 18],101%
4,"CCc1ccc([C@](CC)(NC(=O)c2c(C)nn3c2N[C@@H](c2ccccc2)CC3(C)C)C(=O)N[C@@H](C)C(N)=O)cc1 [Example 3, (5R)-N-((2S)-1-(((2S)-1-Amino-1-oxopropan-2-yl)amino)-2-(4-ethylphenyl)-1-oxobutan-2-yl)-2,7,7-trimethyl-5-phenyl-4,5,6,7-tetrahydropyrazolo[1,5-a]pyrimidine-3-carboxamide]",94%
5,CCc1ccc(C(CC)(NC(=O)c2cnn3c2N[C@@H](c2ccccc2)CC3(C)C)C(=O)N[C@@H](CC(N)=O)C(N)=O)cc1 (stereo partly drawn) [Example 24],102%
6,"CCc1ccc(C(CC)(NC(=O)c2cnn3c2N[C@@H](c2ccccc2)CC3(C)C)C(=O)N[C@@H](CCCCN)C(N)=O)cc1 (stereo partly drawn) [Example 20, (5R)-N-(1-(((2S)-1,6-Diamino-1-oxohexan-2-yl)amino)-2-(4-ethylphenyl)-1-oxobutan-2-yl)-7,7-dimethyl-5-phenyl-4,5,6,7-tetrahydropyrazolo[1,5-a]pyrimidine-3-carboxamide]",101%
7,"CCc1ccc(C(CC)(NC(=O)c2cnn3c2N[C@@H](c2ccccc2)CC3(C)C)C(=O)N[C@H](C(N)=O)[C@@H](C)CC)cc1 (stereo partly drawn) [Example 10, (5R)-N-(1-(((2S,3S)-1-Amino-3-methyl-1-oxopentan-2-yl)amino)-2-(4-ethylphenyl)-1-oxobutan-2-yl)-7,7-dimethyl-5-phenyl-4,5,6,7-tetrahydropyrazolo[1,5-a]pyrimidine-3-carboxamide]",100%
8,"CCc1ccc(C(CC)(NC(=O)c2cnn3c2N[C@@H](c2ccccc2)CC3(C)C)C(=O)N(C)C)cc1 (stereo partly drawn) [Example 32, (5R)-N-(1-(Dimethylamino)-2-(4-ethylphenyl)-1-oxobutan-2-yl)-7,7-dimethyl-5-phenyl-4,5,6,7-tetrahydropyrazolo[1,5-a]pyrimidine-3-carboxamide]",102%
9,"CCc1ccc(C(CC)(NC(=O)c2cnn3c2N[C@@H](c2ccccc2)CC3(C)C)C(=O)NCC(N)=O)cc1 (stereo partly drawn) [Example 17, (5R)-N-(1-((2-Amino-2-oxoethyl)amino)-2-(4-ethylphenyl)-1-oxobutan-2-yl)-7,7-dimethyl-5-phenyl-4,5,6,7-tetrahydropyrazolo[1,5-a]pyrimidine-3-carboxamide]",104%

# Same assay, conditions: CaCl2 final 1.3 mM, 100% = reference antagonist at 10 μM
row,Inhibition rate (%) at 3.3 μM,Structure (SMILES)
1,104%,"CCc1ccc(C(CC)(NC(=O)c2cnn3c2N[C@@H](c2ccccc2)CC3(C)C)C(=O)N(C)C)cc1 (stereo partly drawn) [Example 33, (5R)-N-(1-(Dimethylamino)-2-(4-ethylphenyl)-1-oxobutan-2-yl)-7,7-dimethyl-5-phenyl-4,5,6,7-tetrahydropyrazolo[1,5-a]pyrimidine-3-carboxamide]"
2,101%,"CCc1ccc(C(CC)(NC(=O)c2cnn3c2N[C@@H](c2ccccc2)CC3(C)C)C(=O)N[C@@H](CC(C)C)C(N)=O)cc1 (stereo partly drawn) [Example 15, (5R)-N-(1-(((2S)-1-Amino-4-methyl-1-oxopentan-2-yl)amino)-2-(4-ethylphenyl)-1-oxobutan-2-yl)-7,7-dimethyl-5-phenyl-4,5,6,7-tetrahydropyrazolo[1,5-a]pyrimidine-3-carboxamide]"
3,105%,"CCc1ccc(C(CC)(NC(=O)c2cnn3c2N[C@@H](c2ccccc2)CC3(C)C)C(=O)N[C@@H](CC(C)C)C(N)=O)cc1 (stereo partly drawn) [Example 16, (5R)-N-(1-(((2S)-1-Amino-4-methyl-1-oxopentan-2-yl)amino)-2-(4-ethylphenyl)-1-oxobutan-2-yl)-7,7-dimethyl-5-phenyl-4,5,6,7-tetrahydropyrazolo[1,5-a]pyrimidine-3-carboxamide]"
